Laboratory results: PMC6013791 (Chemical Science, 2016)
Where a SMILES comes first, the peptide text is derived from it. Bridges are numbered along the chain shown (N, C = ends). [ ]: non-standard residue; d: D form. hArg = N=C(N)NCCCC[C@H](N)C(=O)O; Mpa = O=C(O)CCS

Experiments:
CXCR4 [1] = biological target: T1, CXCR4 (Homo sapiens, UniProt P61073); assay: Ligand efficiency from ChEMBL19 CXCR4 ligand data; conditions: LE = 1.4pAffinity/nheavy_atoms, from ChEMBL19 CXCR4 data ref 28
CXCR4 [2] = biological target: T1, CXCR4; conditions: cited from earlier work
CXCR4 [3] = biological target: T1, CXCR4; assay: CXCR4 arrestin assay; assay type: cell-based; conditions: 30 μM, exploitive and hit expansion iterations

T1 sequence (P61073 whole entry): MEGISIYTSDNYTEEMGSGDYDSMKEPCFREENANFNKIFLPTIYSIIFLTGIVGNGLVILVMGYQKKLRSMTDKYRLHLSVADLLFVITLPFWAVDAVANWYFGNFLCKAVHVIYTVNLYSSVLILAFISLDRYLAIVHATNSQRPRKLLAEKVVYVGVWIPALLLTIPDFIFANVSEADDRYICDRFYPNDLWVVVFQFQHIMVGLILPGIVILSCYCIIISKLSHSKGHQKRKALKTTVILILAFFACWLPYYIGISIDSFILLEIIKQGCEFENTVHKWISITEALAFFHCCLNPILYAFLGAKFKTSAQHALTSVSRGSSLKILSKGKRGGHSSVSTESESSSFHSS

SMILES	ligand efficiency (LE) (CXCR4 [1])	also measured
c1cc2nc(c1)CCNCCN(Cc1ccc(CN3CCNCCc4cccc(n4)CCNCC3)cc1)CCNCC2 [CHEMBL1202231]	0.32	–
c1ccc(NCc2ccc(CNc3ccccn3)cc2)nc1 [ChEMBL237830]	0.56	–
C[C@H](NC(=O)[C@H](CCCN=C(N)N)NC(=O)c1ccc(CNCc2ccccn2)cc1)c1cccc2ccccc12 [KRH-1636]	–	EC50 (CXCR4 [2]): 18 nM
N=C(N)NCCCC[C@@H]1NC(=O)CCSSC[C@@H](C(N)=O)NC(=O)[C@@H]2CCCN2C(=O)[C@H](Cc2c[nH]c3ccccc23)NC(=O)[C@H](CC(=O)O)NC(=O)CNC1=O [integrilin] ([Mpa][hArg]GDWPC-NH2; disulfide 1-7 (inferred))	–	activity in the arrestin assay (CXCR4 [3]): lack of activity
